{"source": "paper PMC13184981", "about": "“Discovery and Development of a Potent LIMK2 Isoform-Specific Degrader” (ACS Chemical Biology, 2026)", "key": {"EGFP–LIMK2": {"target": "T1, EGFP–LIMK2 (Homo sapiens, UniProt P53671)", "T1 construct": "P2A remnant (from EGFP-LIMK2-P2A-mCherry; that residues stay on LIMK2 after self-cleavage is own knowledge) (C); expressed in transfected cells; host or cells: HuCCT1 (lentiviral transduction, doxycycline-inducible pCW57 vector)", "T1 sequence (P53671 whole entry)": "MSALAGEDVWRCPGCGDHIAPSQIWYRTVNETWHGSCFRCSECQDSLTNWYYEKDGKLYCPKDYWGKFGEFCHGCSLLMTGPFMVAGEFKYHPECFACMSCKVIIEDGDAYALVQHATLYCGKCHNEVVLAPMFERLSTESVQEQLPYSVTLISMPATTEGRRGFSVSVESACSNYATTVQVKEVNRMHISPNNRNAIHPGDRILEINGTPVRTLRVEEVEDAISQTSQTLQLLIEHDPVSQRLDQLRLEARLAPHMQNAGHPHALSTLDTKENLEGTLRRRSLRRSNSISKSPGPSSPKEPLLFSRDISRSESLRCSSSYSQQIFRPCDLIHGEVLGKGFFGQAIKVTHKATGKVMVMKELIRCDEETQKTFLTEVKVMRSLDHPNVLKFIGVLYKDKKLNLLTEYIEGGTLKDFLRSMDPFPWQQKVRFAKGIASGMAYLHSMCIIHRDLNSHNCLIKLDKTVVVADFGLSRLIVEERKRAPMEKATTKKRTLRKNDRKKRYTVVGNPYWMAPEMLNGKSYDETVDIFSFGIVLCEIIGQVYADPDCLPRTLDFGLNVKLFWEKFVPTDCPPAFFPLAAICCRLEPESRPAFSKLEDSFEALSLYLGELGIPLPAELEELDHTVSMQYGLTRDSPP", "assay": "EGFP-LIMK2 depletion live-cell assay (Incucyte)", "type": "cell-based", "experimental": "To enable a more comprehensive and rapid evaluation of the synthesized PROTACs, we generated a stable, doxycycline-inducible HuCCT1 cell line that expressed an N-terminally fused EGFP–LIMK2 protein. […] The degradation activity of the synthesized PROTACs set was screened at five concentrations ranging from 1 nM to 1000 nM over 72 h using live-cell imaging (Figure E).\nLIMK2 was cloned into pcDNA5-EGFP-NLS-P2A-mCherry-PTS1 (Addgene plasmid #87803) by replacing the NLS sequence with the LIMK2 sequence. pcDNA5-EGFP-NLS-P2A-mCherry-PTS1 was a gift from Andrea Musacchio. Subsequently, EGFP-[…]-P2A-mCherry was cloned into the lentiviral vector pCW57-MCS1-P2A-MCS2 (Hygro) (Addgene plasmid #80922) to generate pCW57-HygB-EGFP-LIMK2-P2A-mCherry. pCW57-MCS1-P2A-MCS2 (Hygro) was a gift from Adam Karpf.\nHEK293T cells (ATCC, CRL-3216) were cultured in Dulbecco’s Modified Eagle’s Medium (DMEM), while HUCCT1 cells (ATCC, CRL-1997) were cultured in RPMI medium supplemented with 10% fetal bovine serum (FBS) and 1% penicillin/streptomycin (P/S) antibiotic mix (all from Sigma-Aldrich, St. Louis, Missouri, USA). Lentiviral particles were produced in HEK293T cells using pCW57-HygB-EGFP-LIMK2-[…]P2A-mCherry, pMD2.G, and psPAX2. HUCCT1 cells were transduced with lentivirus to express LIMK2.\nBriefly, the cells were plated and propagated in 6-well plates overnight. The next day, transduction with viruses was performed. Two days later, transduced cells with pCW57-HygB-EGFP-LIMK2-P2A-mCherry plasmids were selected using 100 μg/mL Hygromycin B. After at least three passages, the cells were sorted for the same populations of RFP- and GFP-expressing cells using the SH800S Cell Sorter (Sony Biotechnology, San Jose, CA, USA). Stable pools of cells were maintained in the same medium used for selection.\nTo assess the turnover of LIMK2, we used the Incucyte S3 or XS5 live-cell imaging system and performed the assay as previously described. , Briefly, 2,000 HUCCT1 cells stably expressing EGFP-LIMK2-P2A-mCherry were seeded per well in a 384-well plate in 50 μL of RPMI medium supplemented with 10% fetal bovine serum (FBS) and 1% penicillin/streptomycin. Cells were incubated for 24 h before treatment. To induce LIMK2 expression, 1 μg/mL of doxycycline (Sigma-Aldrich, D9891–1G) was added at the time of seeding.\nAfter 24 h, 50 μL of medium containing either 0.1% DMSO or the desired concentration of PROTACs was added. Fluorescence in three channels–GFP, RFP, and phase contrast (cell confluence)–was monitored every 2 h for 72 h using the Incucyte S3 or XS5 (Sartorius, Germany). LIMK2 turnover was quantified by calculating the ratio of total fluorescence intensity of RFP to GFP. Each time point represents the average ratio from three technical replicates."}, "[1]": {"target": "T2, NanoLuc-tagged LIMK2 and Halo-tagged CRBN (Homo sapiens, UniProt P53671+Q96SW2)", "T2 construct": "CRBN vector in-house NV1531; host or cells: HEK293T", "T2 sequence (P53671 whole entry)": "as above", "T2 sequence (Q96SW2 whole entry)": "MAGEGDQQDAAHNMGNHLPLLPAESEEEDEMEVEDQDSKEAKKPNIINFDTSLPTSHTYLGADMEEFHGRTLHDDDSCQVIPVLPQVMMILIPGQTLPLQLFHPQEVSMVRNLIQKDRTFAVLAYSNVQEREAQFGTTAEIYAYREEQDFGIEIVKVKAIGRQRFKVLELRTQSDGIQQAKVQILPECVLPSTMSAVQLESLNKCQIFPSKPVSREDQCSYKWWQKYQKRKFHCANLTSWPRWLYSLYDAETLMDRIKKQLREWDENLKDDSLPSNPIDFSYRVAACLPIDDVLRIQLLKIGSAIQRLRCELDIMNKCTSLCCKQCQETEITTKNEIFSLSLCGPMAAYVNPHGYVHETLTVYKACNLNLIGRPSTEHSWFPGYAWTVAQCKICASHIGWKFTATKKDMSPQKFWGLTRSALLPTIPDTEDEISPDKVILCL", "T2 sequence (Q16531 whole entry partner)": "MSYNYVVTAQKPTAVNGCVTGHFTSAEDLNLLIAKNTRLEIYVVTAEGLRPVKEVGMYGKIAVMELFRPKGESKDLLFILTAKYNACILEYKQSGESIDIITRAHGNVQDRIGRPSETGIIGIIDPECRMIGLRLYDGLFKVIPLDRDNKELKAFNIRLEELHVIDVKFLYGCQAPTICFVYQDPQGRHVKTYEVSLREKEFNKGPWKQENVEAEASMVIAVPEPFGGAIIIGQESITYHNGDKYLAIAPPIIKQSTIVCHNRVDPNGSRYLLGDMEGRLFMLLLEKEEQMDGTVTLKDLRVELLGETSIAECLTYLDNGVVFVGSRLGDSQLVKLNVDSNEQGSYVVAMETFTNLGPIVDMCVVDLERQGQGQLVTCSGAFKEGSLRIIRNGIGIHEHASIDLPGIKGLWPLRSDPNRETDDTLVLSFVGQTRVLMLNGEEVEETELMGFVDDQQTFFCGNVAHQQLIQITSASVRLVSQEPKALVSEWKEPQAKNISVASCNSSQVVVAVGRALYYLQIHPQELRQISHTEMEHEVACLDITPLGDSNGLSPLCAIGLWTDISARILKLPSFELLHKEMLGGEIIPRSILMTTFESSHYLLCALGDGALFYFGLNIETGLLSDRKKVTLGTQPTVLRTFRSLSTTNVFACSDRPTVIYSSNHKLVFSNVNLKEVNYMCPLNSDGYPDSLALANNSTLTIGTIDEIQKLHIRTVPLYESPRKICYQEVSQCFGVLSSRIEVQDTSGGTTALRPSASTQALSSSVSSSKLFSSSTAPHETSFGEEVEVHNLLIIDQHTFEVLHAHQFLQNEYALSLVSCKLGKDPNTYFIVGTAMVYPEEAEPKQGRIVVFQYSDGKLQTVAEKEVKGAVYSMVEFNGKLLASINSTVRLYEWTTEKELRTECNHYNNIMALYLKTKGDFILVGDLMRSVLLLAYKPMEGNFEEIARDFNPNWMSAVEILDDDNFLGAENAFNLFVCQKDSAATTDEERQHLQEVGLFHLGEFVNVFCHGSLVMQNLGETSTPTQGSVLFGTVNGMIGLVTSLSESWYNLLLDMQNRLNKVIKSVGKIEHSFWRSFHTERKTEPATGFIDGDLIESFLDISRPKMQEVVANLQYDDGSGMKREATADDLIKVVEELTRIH", "assay": "NanoBRET cellular ternary complex formation, LIMK2", "type": "cell-based", "text": "Next, we assessed ternary complex formation for the parent and lead PROTACs in live cells using the NanoBRET proximity assay. A ternary complex assay system was established using NanoLuc-tagged LIMKs and Halo-tagged CRBN. Formation of the ternary complex upon PROTAC addition was quantified by measuring the BRET signal. […] However, they differed in the strength of the ternary complex. […] We also confirmed the differences in ternary complex strength using the orthogonal PROXICapture approach, in which MOLT-4 cell lysate was passed over immobilized FLAG-tagged CRBN preincubated with THNAN69.\nGene encoding LIMK1 (Promega, NV3391) and LIMK2 (Promega, NV1531) proteins cloned in frame with NanoLuc fusion tag at the C-Terminus and gene encoding cereblon (generated in-house) cloned in frame with Halo Tag at the N-Terminus, were used to measure the end-point ternary complex formation between the PROTACs and LIMK1 and LIMK2, respectively. […] To measure BRET, NanoBRET NanoGlo Substrate + Extracellular NanoLuc Inhibitor (Promega, N2162) was added to cells as per the manufacturer’s protocol, and filtered luminescence was measured on a PHERAstar FSX plate reader (BMG Labtech) equipped with a luminescence filter pair (450 nm BP filter (donor) and 610 nm LP filter (acceptor)). […]"}, "HEK293T cells": {"tested_on": "HEK293T cells", "assay": "CellTiter-Glo 2.0 cell viability assay", "type": "cell-based, human", "settings": "24-h treatment, 25 nM to 20 µM", "experimental": "The effects of the PROTAC on cell viability were determined using the CellTiter-Glo 2.0 Cell Viability Assay (Promega, G9241) following the manufacturer’s protocol. […] 40 μL of assay reagent was added and incubated for 10 min at RT. Filtered luminescence was measured using a PHERAstar plate reader (BMG Labtech), and data were analyzed using GraphPad Prism 9."}}, "data": [{"smiles": "Cc1c(OCc2cn(CCCCC(=O)Nc3ncc(-c4cc(C(F)F)nn4-c4c(Cl)cccc4Cl)s3)nn2)cccc1N1CCC(=O)NC1=O", "note": "[22b]", "values": [{"measurement": "Dmax", "setting": "EGFP–LIMK2; 10 nM PROTAC", "value": 88.2, "unit": "%"}, {"measurement": "Dmax", "setting": "EGFP–LIMK2; 100 nM PROTAC", "value": 97.6, "unit": "%"}, {"measurement": "Dmax", "setting": "EGFP–LIMK2; 1000 nM PROTAC", "value": 98.5, "unit": "%"}, {"measurement": "time to maximum degradation after PROTAC treatment", "setting": "EGFP–LIMK2; EGFP–LIMK2 monitored over 72 h", "value": "approximately 60 h"}, {"measurement": "EGFP–LIMK2 degradation with MLN4924 cotreatment", "setting": "EGFP–LIMK2; PROTAC 10, 100 and 1000 nM + MLN4924 1 μM", "value": "no LIMK2 degradation"}, {"measurement": "EC50", "setting": "[1]", "value": 0.077, "unit": "µM"}, {"measurement": "cytotoxic effects", "setting": "HEK293T cells", "value": "no cytotoxic effects"}]}]}
